According to patent US4448730A, “Hydroxybenzohydroxamic acids, benzamides and esters and related compounds as ribonucleotide reductase inhibitors” (priority 1982, dated 1984):
Where two headings read alike, the source gives them in different places. Blank lines part the entries; values can stand above or below the compound they belong to.

Columns and labels:
[1] = molecular target: T1, ribonucleotide reductase (Rattus norvegicus, UniProt Q4KLN6); assay: Inhibition of ribonucleotide reductase (conversion of CDP to dCDP), enzyme partially purified from Novikoff hepatoma; type: biochemical; conditions: for IC50: CDP to dCDP, 40 min at 30° C, pH 7.5, enzyme from Novikoff hepatoma, read-out: ID50 (inhibitory dose which inhibits ribonucleotide reductase by 50%); for Inhibitory Potency for ribonucleotide reductase: relative to hydroxyurea, given an arbitrary value of 1.0
T1 construct: partially purified from Novikoff hepatoma; from tissue; host or cells: Novikoff hepatoma (rat tumour), partially purified enzyme
T1 sequence (Q4KLN6 1-390): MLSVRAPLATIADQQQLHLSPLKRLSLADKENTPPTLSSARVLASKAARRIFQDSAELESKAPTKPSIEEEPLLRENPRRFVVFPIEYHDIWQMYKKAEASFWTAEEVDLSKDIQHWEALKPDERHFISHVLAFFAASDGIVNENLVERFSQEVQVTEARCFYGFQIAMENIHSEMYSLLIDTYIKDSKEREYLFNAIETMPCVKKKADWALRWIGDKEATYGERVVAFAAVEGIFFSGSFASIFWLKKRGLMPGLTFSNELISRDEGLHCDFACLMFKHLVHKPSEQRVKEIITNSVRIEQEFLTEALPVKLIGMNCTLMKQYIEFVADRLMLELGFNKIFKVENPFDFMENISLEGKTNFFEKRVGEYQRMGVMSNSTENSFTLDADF
Description: (§1) Table 2 gives ribonucleotide reductase data for certain compounds of formula I. In the table, column 1 gives the substitution pattern in the benzene ring, column 2, the R^1 group, column 3, the ID50 (inhibitory dose in micromolar concentration which inhibits ribonucleotide reductase by 50%), column 4, the average percent (± standard error) increase in the life span (ILS) of 8 treated mice inoculated with L1210 leukemia compared with 8 control mice also inoculated with L1210. The daily dose level of the drug which was administered for 8 days is indicated in column 5. Table 3 gives the relative potency of the compounds represented by formula I above as inhibitors of ribonucleotide reductase compared to hydroxyurea whose potency was given an arbitrary value of 1.0. In table 3, column 1 gives the name of the compound and column 2 the relative inhibitory potency of each of the compounds of column 1.
In the above determination of ID50 's in Table 3, ribonucleotide reductase is partially purified from Novikoff hepatoma by a procedure similar to that set forth by Elford et al. J. Biol. Chem. 245, 5228 (1970). The activity of the enzyme was measured by a slightly modified assay procedure originally developed by Reichard et al. id, 236, 1150 […]. This procedure measures the conversion of CDP to dCDP. The assay mixture (0.34 ml.) contains 3 μCi of [^3 H] CDP (specific activity […]), 3.3 μmole ATP, 5.9 μmoles magnesium chloride, 8.8 μmoles Hepes buffer at pH=7.5, 15 μmoles dithiothreitol and enzyme protein between 0.4 and 1.3 mg. Incubation was provided for forty minutes at 30° C. Ion exchange chromatography employing Dowex 50 (H^+) resin is used to separate the product from the substrate. The inhibitors were dissolved in water and a mixture of water and up to 1 % ethanol or 2% dimethylsulfoxide, neither one of which inhibited the enzyme at these concentrations. Each inhibitor was tested at a minimum of three concentrations and the active compounds reassayed at least one additional time. ID50 's in μmoles were estimated from graphs summarizing results for each compound.

[2] = test system: L1210 leukemia; assay: L1210 leukemia in mice, increase in life span (Table 2); type: in vivo; conditions: Mus musculus, L1210, 192 h, read-out: ILS, average percent (± standard error) increase in life span; for ILS at 200 mg/kg: 200 mg/kg daily for 8 days; for ILS at 500 mg/kg: 500 mg/kg daily for 8 days
Description: As stated above, the compounds represented by formula I above have the ability to inhibit ribonucleotide reductase, an enzyme involved in the reductive conversion of ribonucleotides to deoxyribonucleotides. This enzymatic reaction is a rate controlling step in the biosynthetic pathway leading to DNA and cell replication. In general, the ribonucleotide reductase level is closely correlated with cellular replication.
as §1

[3] = test system: L-1210 Leukemia; type: in vivo, mice; conditions: once or twice daily for 9-10 days
Procedure: (§2) All compounds were administered once or twice daily for 9-10 days starting 24 hours after inoculation with the tumor.

[4] = test system: Lewis Lung; assay: Activity vs. Lewis Lung (Table 5); type: in vivo, mice; conditions: once or twice daily for 9-10 days
Procedure: as §2

[5] = test system: CA-755 adenocarcinoma; assay: Activity vs. CA-755 adenocarcinoma (Table 7); type: in vivo, mice; conditions: once or twice daily for 9-10 days
Procedure: as §2

[6] = test system: L-1210 Leukemia; type: in vivo, mice
Procedure: In a series of studies against L-1210 leukemia, in addition to those studies set forth in Table 2 and 4, 3,4-dihydroxybenzohydroxamic acid gave the following increases in survival times at the dose levels specified. Drug was administered daily for nine days.
Similar data for 3,4,5-trihydroxybenzohydroxamic acid are as follows: […]

[7] = test system: L-5563 lymphoma; assay: Activity vs. L-5563 lymphoma (Table 6); conditions: once or twice daily for 9-10 days
Procedure: as §2

[8] = test system: L-1210 Leukemia; type: in vivo, mice; remark: listed apart in the source
Description: The above data clearly show the enhanced anti-tumor activity of trihydroxybenzohydroxamic acid where the hydroxy groups are vicinal but no hydroxyl is ortho. Similar data are available for the vicinal dihydroxybenzohydroxamic acids with and without an ortho-hydroxy substituent in an L-1210 leukemic test in mice as follows: […]

[9] = test system: L-1210 Leukemia; assay: Direct side-by-side comparison with L-1210 leukemia; type: in vivo, mice
Description: In a direct side-by-side comparison with L-1210 leukemia, the following results were obtained.

[10] = test system: DNA synthesis in Ehrlich ascites tumor cells; conditions: cited from earlier work; for inhibition of / selectivity against DNA synthesis (in words) / selectivity against DNA synthesis (in words): Gale and Hynes 1968; for inhibition of / selectivity against DNA synthesis (in words): in vitro; for selectivity against DNA synthesis (in words): only after exposure of the cells for 1-2 hours
[11] = Biochemical Pharmacology 1971; cited from earlier work
[12] = test system: P388 Leukemia; assay: Activity vs. P388 Leukemia (Table 8); type: in vivo, mice; conditions: once or twice daily for 9-10 days
Procedure: as §2

IC50 [1]: 5 µM | Inhibitory Potency for ribonucleotide reductase [1]: 100
Structure (SMILES): NC(=O)c1ccc(O)c(O)c1O [2,3,4-trihydroxybenzamide]
ILS at 200 mg/kg [2]: 48 ± 7%

Structure (SMILES): O=C(NO)c1ccc(O)c(O)c1O [2,3,4-trihydroxybenzohydroxamic acid]
IC50 [1]: 3.5 µM | Inhibitory Potency for ribonucleotide reductase [1]: 140 | ILS at 125 mg/kg ([2]; 125 mg/kg daily for 8 days): 30 ± 7% | % increase in survival time ([3]; 25-50 mg/kg): 17-21% | % tumor inhibition ([4]; 25-50 mg/kg): 13-14% | % inhibition ([5]; 25-50 mg/kg): 12-18% | % increase in survival ([6]; 25 mg/kg daily for nine days): 10% | % increase in survival ([6]; 50 mg/kg daily for nine days): 8% | % increase in survival ([6]; 100 mg/kg daily for nine days): 16% | toxic (in column % inhibition) ([7]; 25-50 mg/kg): toxic

Structure (SMILES): O=C(NO)c1cccc(O)c1O [2,3-dihydroxybenzohydroxamic acid]
IC50 [1]: 8 µM | Inhibitory Potency for ribonucleotide reductase [1]: 63 | ILS at 200 mg/kg [2]: 36 ± 11% | % increase in survival time ([8]; 300 mg/kg): about 0% | % increase in survival time ([8]; 450 mg/kg): about 0% | % increase in survival time ([9]; 125 mg/kg): 0% | % increase in survival time ([9]; 250 mg/kg): 16% | inhibition of / selectivity against DNA synthesis (in words) [10]: marked selectivity against DNA synthesis with a greater inhibition than that produced by salicylhydroxamic acid | antimitogenic activity (in words) [11]: most active compounds tested

IC50 [1]: 250 µM | Inhibitory Potency for ribonucleotide reductase [1]: 2.0
Structure (SMILES): O=C(NO)c1ccc(O)cc1O [2,4-dihydroxybenzohydroxamic acid]
ILS at 500 mg/kg [2]: 42 ± 7%

IC50 [1]: 200 µM | Inhibitory Potency for ribonucleotide reductase [1]: 2.5
Structure (SMILES): O=C(NO)c1cc(O)ccc1O [2,5-dihydroxybenzohydroxamic acid]
ILS at 300 mg/kg ([2]; 300 mg/kg daily for 8 days): 30 ± 14%

IC50 [1]: 100 µM | Inhibitory Potency for ribonucleotide reductase [1]: 5.0
Structure (SMILES): O=C(NO)c1c(O)cccc1O [2,6-dihydroxybenzohydroxamic acid]
ILS at 88 mg/kg ([2]; 88 mg/kg daily for 8 days): 23 ± 11%

Structure (SMILES): Nc1ccc(C(=O)NO)c(O)c1 [2-hydroxy-4-aminobenzoyl compound]
antimitogenic activity (in words) [11]: inactive

IC50 [1]: 25 µM
Structure (SMILES): CNC(=O)c1cc(O)c(O)c(O)c1 [3,4,5 NHCH3]
ILS at 500 mg/kg [2]: 60 ± 29%

Structure (SMILES): NC(=O)c1cc(O)c(O)c(O)c1 [3,4,5-trihydroxybenzamide]
IC50 [1]: 10 µM | Inhibitory Potency for ribonucleotide reductase [1]: 50 | ILS at 250 mg/kg ([2]; 250 mg/kg daily for 8 days): 42 ± 5% | % increase in survival time ([3]; 150 mg/kg): 50% | % increase in survival time ([3]; 175 mg/kg): 55% | % increase in survival time ([3]; 225 mg/kg): 10% | % tumor inhibition ([4]; 200 mg/kg): 21% | % inhibition ([5]; 200 mg/kg): 38% | % Prolongation ([12]; 175 mg/kg): 43% | % Prolongation ([12]; 200 mg/kg): 40% | % Prolongation ([12]; 225 mg/kg): 55% | toxic (in column % inhibition) ([7]; 200 mg/kg): toxic

IC50 [1]: 50 µM | Inhibitory Potency for ribonucleotide reductase [1]: 10
Structure (SMILES): NC(=O)c1ccc(O)c(O)c1 [3,4-dihydroxybenzamide]
ILS at 1200 mg/kg ([2]; 1200 mg/kg daily for 8 days): 35 ± 11%

Structure (SMILES): O=C(Cc1ccc(O)c(O)c1)NO [3,4-dihydroxyphenylacetohydroxamic acid]
% increase in survival time ([3]; 606 mg/kg): 57%

Structure (SMILES): Nc1cc(N)cc(C(=O)NO)c1 [3,5-Diaminobenzohydroxamic acid]
selectivity against DNA synthesis (in words) [10]: relative selectivity against DNA synthesis

IC50 [1]: 400 µM | Inhibitory Potency for ribonucleotide reductase [1]: 1.2
Structure (SMILES): O=C(NO)c1cc(O)cc(O)c1 [3,5-dihydroxybenzohydroxamic acid]
ILS at 1000 mg/kg ([2]; 1000 mg/kg daily for 8 days): 52 ± 22%

Structure (SMILES): CC(C)c1cc(C(=O)NO)c(O)c(C(C)C)c1 [3,5-diisopropylsalicylhydroxamic acid]
inhibition of DNA synthesis, rank in words ([10]; Gale, Hynes and Smith 1970): most active compound

Structure (SMILES): Nc1ccc(C(=O)NO)cc1 [4-aminobenzohydroxamic acid]
selectivity against DNA synthesis (in words) [10]: relative selectivity against DNA synthesis | antimitogenic activity (in words) [11]: inactive

Structure (SMILES): NC(=O)c1ccccc1 [benzamide]
inhibition of / selectivity against DNA synthesis (in words) [10]: totally inactive

Structure (SMILES): NC(=O)NO [hydroxyurea, reference compound]
% increase in survival time ([3]; 30 mg/kg): 27% | % increase in survival time ([3]; 40 mg/kg): 27% | % increase in survival time ([3]; 60 mg/kg): 92% | % increase in survival time ([3]; 71 mg/kg): 58% | % tumor inhibition ([4]; 71 mg/kg): 27% | % tumor inhibition ([4]; 400 mg/kg): 44% | % inhibition ([5]; 71 mg/kg): 27% | % inhibition ([5]; 200 mg/kg): 26%

Structure (SMILES): O=C(Oc1ccccc1)c1cc(O)c(O)c(O)c1 [phenyl 3,4,5-trihydroxybenzoate]
Inhibitory Potency for ribonucleotide reductase [1]: 33 | % increase in survival time ([3]; 200 mg/kg): 56% | % tumor inhibition ([4]; 50 mg/kg): 2% | % tumor inhibition ([4]; 200 mg/kg): 14% | % inhibition ([5]; 100 mg/kg): 27% | % inhibition ([5]; 200 mg/kg): 11% | % inhibition ([7]; 200 mg/kg): 19%
